# Experimental data reported in patent publication US8574563B2 (Bristol-Myers Squibb Company, priority 2006, dated 2013).
# Test system: HCV 1b-377-neo replicon cells
# Assay: HCV replicon assay, HCV 1b-377-neo replicon cells (1b FRET)
# Format: cell-based, Hepatitis C virus genotype 1b
# Details: Hepatitis C virus, HCV 1b-377-neo replicon cells; HCV 1b genotype; read-out: EC50 range against HCV 1b (Table 2, Range)
# Outline: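 Compounds tested in HCV genotype 1b-377-neo replicon cells with a FRET read-out. Cells resistant to a reference NS5A inhibitor through a Y2065H NS5A mutation were run alongside wild-type cells.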
row,SMILES,EC50
1,"COC(=O)N[C@@H](C(=O)N(C)[C@@H](C)c1ncc(-c2ccc(-c3ncc(-c4cnc([C@@H]5CCCN5C(=O)[C@@H](c5ccccc5)N5CCCCC5)[nH]4)cn3)cc2)[nH]1)c1ccccc1 [Example 152l-1, methyl ((1R)-2-(methyl((1S)-1-(4-(4-(5-(2-((2S)-1-((2R)-2-phenyl-2-(1-piperidinyl)acetyl)-2-pyrrolidinyl)-1H-imidazol-5-yl)-2-pyrimidinyl)phenyl)-1H-imidazol-2-yl)ethyl)amino)-2-oxo-1-phenylethyl)carbamate]",0.001 to 0.999 nM
2,"COC(=O)N[C@@H](C(=O)N[C@@H](C)c1ncc(-c2ccc(-c3ncc(-c4cnc([C@@H]5CCCN5C(=O)[C@@H](c5ccccc5)N5CCCCC5)[nH]4)cn3)cc2)[nH]1)c1ccccc1 [Example 152l-2, methyl ((1R)-2-oxo-1-phenyl-2-(((1S)-1-(4-(4-(5-(2-((2S)-1-((2R)-2-phenyl-2-(1-piperidinyl)acetyl)-2-pyrrolidinyl)-1H-imidazol-5-yl)-2-pyrimidinyl)phenyl)-1H-imidazol-2-yl)ethyl)amino)ethyl)carbamate]",0.001 to 0.999 nM
3,COC(=O)N[C@@H](C(=O)N1CCC[C@H]1c1ncc(-c2ccc(-c3ncc(-c4cnc([C@@H]5CCCN5C(=O)[C@@H](c5ccccc5)N5CCCCC5)[nH]4)cn3)cc2)[nH]1)c1ccccc1 [Example 152l-3],0.001 to 0.999 nM
4,"CN(C)[C@@H](C(=O)N1CCC[C@H]1c1ncc(-c2ccc(-c3ccc(-c4cnc([C@@H]5CCCN5C(=O)[C@@H](c5ccccc5)N(C)C)[nH]4)nn3)nn2)[nH]1)c1ccccc1 [Example 153c-1, (1R,1′R)-2,2′-(3,3′-bipyridazine-6,6′-diylbis(1H-imidazole-5,2-diyl(2S)-2,1-pyrrolidinediyl))bis(N,N-dimethyl-2-oxo-1-phenylethanamine)]",1 to 99 nM
5,"COC(=O)N[C@@H](C(=O)N1CCC[C@H]1c1ncc(-c2ccc(-c3ccc(-c4cnc([C@@H]5CCCN5C(=O)[C@H](NC(=O)OC)c5ccccc5)[nH]4)nn3)nn2)[nH]1)c1ccccc1 [Example 153c-2, dimethyl (3,3′-bipyridazine-6,6′-diylbis(1H-imidazole-5,2-diyl(2S)-2,1-pyrrolidinediyl((1R)-2-oxo-1-phenyl-2,1-ethanediyl)))biscarbamate]",1 to 99 nM
6,"CN(C)[C@@H](C(=O)N1CCC[C@H]1c1ncc(-c2cnc(-c3ncc(-c4cnc([C@@H]5CCCN5C(=O)[C@@H](c5ccccc5)N(C)C)[nH]4)cn3)nc2)[nH]1)c1ccccc1 [Example 153c-3, (1R,1′R)-2,2′-(2,2′-bipyrimidine-5,5′-diylbis(1H-imidazole-5,2-diyl(2S)-2,1-pyrrolidinediyl))bis(N,N-dimethyl-2-oxo-1-phenylethanamine)]",1000 to 10000 nM
7,"COC(=O)N[C@@H](C(=O)N1CCC[C@H]1c1ncc(-c2cnc(-c3ncc(-c4cnc([C@@H]5CCCN5C(=O)[C@H](NC(=O)OC)c5ccccc5)[nH]4)cn3)nc2)[nH]1)c1ccccc1 [Example 153c-4, dimethyl (2,2′-bipyrimidine-5,5′-diylbis(1H-imidazole-5,2-diyl(2S)-2,1-pyrrolidinediyl((1R)-2-oxo-1-phenyl-2,1-ethanediyl)))biscarbamate]",1000 to 10000 nM
8,"CN(C)[C@@H](C(=O)N1CCC[C@H]1c1ncc(-c2cnc(-c3cnc(-c4cnc([C@@H]5CCCN5C(=O)[C@@H](c5ccccc5)N(C)C)[nH]4)cn3)cn2)[nH]1)c1ccccc1 [Example 153c-5, (1R,1′R)-2,2′-(2,2′-bipyrazine-5,5′-diylbis(1H-imidazole-5,2-diyl(2S)-2,1-pyrrolidinediyl))bis(N,N-dimethyl-2-oxo-1-phenylethanamine)]",1 to 99 nM
9,"COC(=O)N[C@@H](C(=O)N1CCC[C@H]1c1ncc(-c2cnc(-c3cnc(-c4cnc([C@@H]5CCCN5C(=O)[C@H](NC(=O)OC)c5ccccc5)[nH]4)cn3)cn2)[nH]1)c1ccccc1 [Example 153c-6, dimethyl (2,2′-bipyrazine-5,5′-diylbis(1H-imidazole-5,2-diyl(2S)-2,1-pyrrolidinediyl((1R)-2-oxo-1-phenyl-2,1-ethanediyl)))biscarbamate]",1 to 99 nM
10,"COC(=O)N[C@@H](C(=O)N[C@@H](C)c1ncc(-c2ccc(-c3ccc(-c4cnc([C@H](C)NC(=O)[C@H](NC(=O)OC)c5ccccc5)[nH]4)cn3)nc2)[nH]1)c1ccccc1 [Example 153c-7, dimethyl (2,2′-bipyridine-5,5′-diylbis(1H-imidazole-5,2-diyl(1S)-1,1-ethanediylimino((1R)-2-oxo-1-phenyl-2,1-ethanediyl)))biscarbamate]",1 to 99 nM
11,"COc1ccc(-c2ccc(-c3cnc([C@@H]4CCCN4C(=O)[C@@H](c4ccccc4)N(C)C)[nH]3)cc2)cc1-c1c[nH]c([C@@H]2CCCN2C(=O)[C@@H](c2ccccc2)N(C)C)n1 [Example D33, (1R,1′R)-2,2′-((4-methoxy-3,4′-biphenyldiyl)bis(1H-imidazole-5,2-diyl(2S)-2,1-pyrrolidinediyl))bis (N,N-dimethyl-2-oxo-1-phenylethanamine)]",0.001 to 0.999 nM
12,"COC(=O)N[C@@H](C(=O)N1CCC[C@H]1c1nc(-c2cc(-c3ccc(-c4cnc([C@@H]5CCCN5C(=O)[C@H](NC(=O)OC)c5ccccc5)[nH]4)cc3)ccc2OC)c[nH]1)c1ccccc1 [Example D34, dimethyl ((4-methoxy-3,4′-biphenyldiyl)bis(1H-imidazole-5,2-diyl(2S)-2,1-pyrrolidinediyl((1R)-2-oxo-1-phenyl-2,1-ethanediyl))) biscarbamate]",0.001 to 0.999 nM
13,"CCN(CC)[C@@H](C(=O)N1CCC[C@H]1c1ncc(-c2ccc(-c3ccc(-c4cnc([C@@H]5CCCN5C(=O)[C@@H](NC(=O)OC)C(C)C)[nH]4)c(F)c3)cc2)[nH]1)c1ccccc1 [Example D35, methyl ((1S)-1-(((2S)-2-(5-(4′-(2-((2S)-1-((2R)-2-(diethylamino)-2 - phenylacetyl)-2-pyrrolidinyl)-1H-imidazol-5-yl)-3-fluoro-4-biphenylyl)-1H-imidazol-2-yl)-1-pyrrolidinyl)carbonyl)-2-methylpropyl) carbamate]",0.001 to 0.999 nM
14,"CCN(CC)[C@@H](C(=O)N1CCC[C@H]1c1ncc(-c2ccc(-c3ccc(-c4cnc([C@@H]5CCCN5C(=O)[C@H](C)NC(=O)OC)[nH]4)c(F)c3)cc2)[nH]1)c1ccccc1 [Example D36, methyl ((1S)-2-((2S)-2-(5-(4′-(2-((2S)-1-((2R)-2-(diethylamino)-2-phenylacetyl)-2-pyrrolidinyl)-1H-imidazol-5-yl)-3-fluoro-4-biphenylyl)-1H-imidazol-2-yl)-1-pyrrolidinyl)-1-methyl-2-oxoethyl)carbamate]",0.001 to 0.999 nM
15,"CCN(CC)[C@@H](C(=O)N1CCC[C@H]1c1ncc(-c2ccc(-c3ccc(-c4cnc([C@@H]5CCCN5C(=O)[C@H](NC(=O)OC)c5ccccc5)[nH]4)c(F)c3)cc2)[nH]1)c1ccccc1 [Example D37, methyl ((1R)-2-((2S)-2-(5-(4′-(2-((2S)-1-((2R)-2-(diethylamino)-2-phenylacelyl)-2-pyrrolidinyl)-1H-imidazol-5-yl)-3-fluoro-4-biphenylyl)-1H-imidazol-2-yl)-1-pyrrolidinyl)-2-oxo-1-phenylethyl)carbamate]",0.001 to 0.999 nM
16,"COC(=O)N[C@@H](C)C(=O)N1CCC[C@H]1c1ncc(-c2ccc(-c3ccc(-c4cnc([C@@H]5CCCN5C(=O)[C@H](NC(=O)OC)c5ccccc5)[nH]4)cc3)cc2F)[nH]1 [Example D38, methyl ((1R)-2-((2S)-2-(5-(3′-fluoro-4′-(2-((2S)-1-(N-(methoxycarbonyl)-L-alanyl)-2-pyrrolidinyl)-1H-imidazol-5-yl)-4-biphenylyl)-1H-imidazol-2-yl)-1-pyrrolidinyl)-2-oxo-1-phenylethyl)carbamate]",0.001 to 0.999 nM
17,"CCN(CC)[C@@H](C(=O)N1CCC[C@H]1c1ncc(-c2ccc(-c3ccc(-c4cnc([C@@H]5CCCN5C(=O)[C@H](NC(=O)OC)c5ccccc5)[nH]4)cc3)cc2F)[nH]1)c1ccccc1 [Example D39, methyl ((1R)-2-((2S)-2-(5-(4′-(2-((2S)-1-((2R)-2-(diethylamino)-2-phenylacetyl)-2-pyrrolidinyl)-1H-imidazol-5-yl)-3′-fluoro-4-biphenylyl)-1H-imidazol-2-yl)-1-pyrrolidinyl)-2-oxo-1-phenylethyl)carbamate]",0.001 to 0.999 nM
18,"COC(=O)N[C@H](C(=O)N1CCC[C@H]1c1ncc(-c2ccc(-c3ccc(-c4cnc([C@@H]5CCCN5C(=O)[C@@H](NC(=O)OC)C(C)C)[nH]4)c(F)c3)cc2)[nH]1)C(C)C [Example D40, methyl ((1S)-1-(((2S)-2-(5-(3′-fluoro-4′-(2-((2S)-1-((2S)-2-((methoxycarbonyl)amino)-3-methylbutanoyl)-2-pyrrolidinyl)-1H-imidazol-5-yl)-4-biphenylyl)-1H-imidazol-2-yl)-1-pyrrolidinyl)carbony)-2-methylpropyl) carbamate]",0.001 to 0.999 nM
19,"COC(=O)N[C@@H](C)C(=O)N1CCC[C@H]1c1ncc(-c2ccc(-c3ccc(-c4cnc([C@@H]5CCCN5C(=O)[C@@H](NC(=O)OC)C(C)C)[nH]4)cc3)cc2F)[nH]1 [Example D41, methyl ((1S)-1-(((2S)-2-(5-(3′-fluoro-4′-(2-((2S)-1-(N-(methoxycarbonyl)-L-alanyl)-2-pyrrolidinyl)-1H-imidazol-5-yl)-4-biphenylyl)-1H-imidazol-2-yl)-1-pyrrolidinyl)carbonyl)-2-methylpropyl) carbamate]",0.001 to 0.999 nM
20,"CCN(CC)[C@H](C)C(=O)N1CCC[C@H]1c1ncc(-c2ccc(-c3ccc(-c4cnc([C@@H]5CCCN5C(=O)[C@@H](NC(=O)OC)C(C)C)[nH]4)cc3)cc2F)[nH]1 [Example D43, methyl ((1S)-1-(((2S)-2-(5-(4′-(2-((2S)-1-(N,N-diethyl-D-alanyl)-2-pyrrolidinyl)-1H-imidazol-5-yl)-3′-fluoro-4-biphenylyl)-1H-imidazol-2-yl)-1-pyrrolidinyl)carbonyl)-2-methylpropyl) carbamate]",0.001 to 0.999 nM
